In patent US20230248638A1, “A PERSONAL CARE COMPOSITION COMPRISING ATRACTYLENOLIDE-I OR A SOURCE THEREOF” (Conopco, Inc., d/b/a UNILEVER, priority 2020, published 2023):

System: Normal human epidermal melanocytes (NHEM)
Assay: Melanin content quantification in melanocytes
Type: cell-based
Settings: 72 hours treatment, concentration as in Treatment column, melanin normalized to relative cell viability
Method: Normal human epidermal melanocytes (NHEM) (Biocell, Xi'an, China) were grown in melanocyte growth medium (MGM, Promocell, Germany) with human melanocyte growth supplement (Promocell, Germany). NHEM cells were seeded at a density of 4×10^4 cells in 500 μL MGM/well in a 24-well plate and incubated for 48 hours in an incubator (Thermo Scientific, Model 3111) at 37° C. with 5% CO2. After 48 hours, media was replaced with fresh media containing test samples (as per Table 1) for the following 72 hours.
After CCK8 absorbance readings were obtained, cells were lysed by lysis buffer at 60° C. for 1 hr. Then, 50 μL cell lysate was transferred to a new 96-well plate and absorbance was measured at 405 nm using TECAN plate reader. Serial dilutions of pure melanin were prepared as references.
The melanin content was calculated from the melanin standard curve. The melanin concentrations (μg/mL) were then normalized to the relative cell viability. The melanin inhibition rates were then calculated using the following equation: […]

Row | SMILES | Melanin inhibition rate (% inhibition)
1 | CCCCCCC(O)CCCCCCCCCCC(=O)O (centres unmarked) [Example B, 12 hydroxystearic acid] | 5.6 ± 3.03
2 | C=C1CCC[C@]2(C)C=C3OC(=O)C(C)=C3C[C@@H]12 [D, Atractylenolide -1] | 7.8 ± 2.80
